Results on 13 compounds are retold here after US20190077795A1, “ARGININE […] INHIBITORS AND USES THEREOF” (Epizyme, Inc., priority 2014, published 2019).

Read-outs that look alike come from different tables or passages of the source.

For test [1], the target named is T1, human PRMT1 (Homo sapiens, UniProt Q99873).
T1 construct: GST-tagged PRMT1; made in house; host or cells: High Five insect cells (baculovirus, pFastBac1)
The test is described as follows: PRMT1 Biochemical Assay. Conditions: peptide substrate, 3H-SAM Flashplate assay; read-out: PRMT1 IC50. The method, boiled down:
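GST-tagged PRMT1 from baculovirus-infected cells, preincubated with compounds 30 min at room temperature in 20 mM Bicine pH 7.6, 1 mM TCEP, 0.005% BSG, 0.002% Tween 20. Reaction started with ³H-SAM plus biotinylated peptide, stopped with 300 µM cold SAM.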

Test [2] concerns the target human PRMT8 (Homo sapiens, UniProt Q9NR22). The test is described as follows: PRMT8 Biochemical Assay. Conditions: PRMT8 IC50 (uM), peptide substrate, 3H-SAM Flashplate assay.
Description: S-adenosylmethionine (SAM), S-adenosylhomocysteine (SAH), bicine, Tween20, dimethylsulfoxide (DMSO), bovine skin gelatin (BSG), isopropyl-3-D-thiogalactopyranoside (IPTG), and Tris(2-carboxyethyl)phosphine hydrochloride solution (TCEP) were purchased from Sigma-Aldrich at the highest level of purity possible. ^3H-SAM was purchase from American Radiolabeled Chemicals with a specific activity of 80 Ci/mmol. 384-well streptavidin Flashplates were purchased from PerkinElmer.
E. coli (BL21(DE3) Gold, Stratagene) made competent by the CaCl2 method were transformed with the PRMT8 construct and ampicillin selection. Protein over-expression was accomplished by growing the PRMT8 expressing E. coli clone and inducing expression with 0.3 mM IPTG at 16° C. The culture was grown for 12 hours, harvested by centrifugation, and stored at −80° C. for purification.
GST-tagged PRMT8 was eluted with 50 mM Tris, 2 mM glutathione, pH 7.8. Pooled fractions were cleaved by thrombin (10U) and dialysed in buffer A. GST was removed by reloading the cleaved protein sample onto glutathione sepharose column and PRMT8 was collected in the flow-through fractions. PRMT8 was purified further by ceramic hydroxyapatite chromatography. The column was washed with 50 mM phosphate buffer, 100 mM NaCl, 5% glycerol, 5 mM β-mercaptoethanol, pH 7.8 and PRMT8 was eluted by 100 mM phosphate in the same buffer. Protein was concentrated and buffer was exchanged to 50 mM Tris, 300 mM NaCl, 10% glycerol, 5 mM β-mercaptoethanol, pH 7.8 by ultrafiltration.
General Procedure for PRMT8 Enzyme Assays on Peptide Substrates.
The assays were all performed in a buffer consisting of 20 mM Bicine (pH=7.6), 1 mM TCEP, 0.005% BSG, and 0.002% Tween 20, prepared on the day of use. […] DMSO (1 ul) was added to Columns 11, 12, 23, 24, rows A-H for the maximum signal control and 1 ul of SAH, a known product and inhibitor of PRMT8, was added to columns 11, 12, 23, 24, rows I-P for the minimum signal control. A cocktail (40 ul) containing the PRMT8 enzyme was added by Multidrop Combi (Thermo-Fisher). The compounds were allowed to incubate with PRMT8 for 30 min at room temperature, then a cocktail (10 ul) containing ^3H-SAM and peptide was added to initiate the reaction (final volume=51 ul). […] The assays were stopped by the addition of non-radiolabeled SAM (10 ul) to a final concentration of 400 uM, which dilutes the ^3H-SAM to a level where its incorporation into the peptide substrate is no longer detectable. 50 ul of the reaction in the 384-well polypropylene plate was then transferred to a 384-well Flashplate and the biotinylated peptides were allowed to bind to the streptavidin surface for at least 1 hour before being washed once with 0.1% Tween20 in a Biotek ELx405 plate washer. The plates were then read in a PerkinElmer TopCount plate reader to measure the quantity of ^3H-labeled peptide bound to the Flashplate surface, measured as disintegrations per minute (dpm) or alternatively, referred to as counts per minute (cpm).
Where dpm=disintegrations per minute, cmpd=signal in assay well, and min and max are the respective minimum and maximum signal controls.
Where top and bottom are the normally allowed to float, but may be fixed at 100 or 0 respectively in a 3-parameter fit. The Hill Coefficient normally allowed to float but may also be fixed at 1 in a 3-parameter fit. Y is the % inhibition and X is the compound concentration.
For test [3], the system named is mono-methyl arginine in RKO cells. The test is described as follows: RKO Methylation Assay, In Cell Western (ICW). It is filed as cell-based. Conditions: 72 hours.
The target of test [4] is T2, human PRMT6 (Homo sapiens, UniProt Q96LA8).
T2 construct: Flag-PRMT6-His; made in house; host or cells: HEK 293F cells (BacMam baculovirus, pFastBacMam)
T2 sequence (Q96LA8 with tags, fused parts or gaps): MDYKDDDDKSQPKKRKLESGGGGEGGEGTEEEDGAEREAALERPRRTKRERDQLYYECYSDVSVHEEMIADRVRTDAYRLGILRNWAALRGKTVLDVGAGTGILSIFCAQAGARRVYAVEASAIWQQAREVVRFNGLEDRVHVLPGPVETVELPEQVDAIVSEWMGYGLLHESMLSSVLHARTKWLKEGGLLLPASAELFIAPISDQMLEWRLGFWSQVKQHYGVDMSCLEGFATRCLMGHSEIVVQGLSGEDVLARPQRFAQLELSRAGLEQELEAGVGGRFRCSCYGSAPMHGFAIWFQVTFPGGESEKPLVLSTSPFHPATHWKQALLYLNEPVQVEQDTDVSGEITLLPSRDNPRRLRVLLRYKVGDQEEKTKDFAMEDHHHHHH
The test is described as follows: PRMT6 Biochemical Assay.

Where [5] appears, read: peptide substrate, 3H-SAM Flashplate assay, read-out: PRMT6 IC50.

human PRMT8, sequence (Q9NR22 whole entry): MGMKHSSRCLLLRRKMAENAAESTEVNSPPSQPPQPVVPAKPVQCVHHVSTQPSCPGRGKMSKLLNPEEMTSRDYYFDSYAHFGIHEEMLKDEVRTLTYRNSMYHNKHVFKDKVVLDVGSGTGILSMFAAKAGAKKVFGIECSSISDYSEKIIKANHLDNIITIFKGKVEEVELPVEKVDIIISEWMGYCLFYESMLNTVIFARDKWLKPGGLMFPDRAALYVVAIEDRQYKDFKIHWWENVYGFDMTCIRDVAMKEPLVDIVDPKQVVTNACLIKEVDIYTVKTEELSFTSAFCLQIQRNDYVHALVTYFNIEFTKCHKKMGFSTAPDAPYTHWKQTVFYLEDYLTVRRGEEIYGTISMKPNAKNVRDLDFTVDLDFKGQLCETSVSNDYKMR
T1 sequence (Q99873 with tags, fused parts or gaps): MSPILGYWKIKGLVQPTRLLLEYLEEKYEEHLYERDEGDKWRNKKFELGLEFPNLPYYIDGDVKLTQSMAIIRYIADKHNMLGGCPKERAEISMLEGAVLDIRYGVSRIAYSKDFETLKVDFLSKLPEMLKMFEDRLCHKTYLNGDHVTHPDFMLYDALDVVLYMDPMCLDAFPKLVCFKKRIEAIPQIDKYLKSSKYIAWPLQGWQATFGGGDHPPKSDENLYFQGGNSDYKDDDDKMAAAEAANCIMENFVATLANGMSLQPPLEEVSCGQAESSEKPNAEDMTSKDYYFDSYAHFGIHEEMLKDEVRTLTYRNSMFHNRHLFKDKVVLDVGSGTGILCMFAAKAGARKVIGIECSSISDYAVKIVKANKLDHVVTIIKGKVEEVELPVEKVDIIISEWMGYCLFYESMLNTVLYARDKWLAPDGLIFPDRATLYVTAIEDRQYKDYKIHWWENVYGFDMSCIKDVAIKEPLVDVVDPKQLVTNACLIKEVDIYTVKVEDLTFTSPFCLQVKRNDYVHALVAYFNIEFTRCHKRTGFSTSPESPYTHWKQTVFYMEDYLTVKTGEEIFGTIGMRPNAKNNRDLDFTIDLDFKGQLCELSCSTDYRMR

Turning to `CNCCN(C)Cc1c[nH]nc1-c1ccc(CC(C)C)cc1` [Compound 37], the IC50 in test [1] came out at 0.00804 µM; in test [2] it was 0.0136 µM; in test [4] (PRMT6 IC50 (uM)) it was 0.0169 µM. For the same compound, the “ICW EC30” value in test [3] amounted to 0.082 µM.

For the compound `CNCCN(C)Cc1c[nH]nc1-c1ccc(OCCOc2ccc(C(O)CO)cc2)cc1` (stereo not shown) [Compound 21], the concentration for half-maximal inhibition (IC50) in test [1] was 0.00623 µM; in test [2], 0.026 µM; in test [4] (setting [5]), 0.00616 µM. In test [3], the “ICW EC30” value was determined as 3.184 µM.

As for `CNCCN(C)Cc1c[nH]nc1-c1cnc(OCCOC)c(C(F)(F)F)c1` [Compound 79], the half-maximal inhibitory concentration (IC50) in test [1] came to 0.0198 µM; in test [2] it was 0.171 µM; in test [4] (setting [5]) it was 0.105 µM. Moreover, the “ICW EC30” value in test [3] is 2.611 µM.

Turning to `CNCCN(C)Cc1c[nH]nc1-c1ccc(N2CCCCC2)nc1` [Compound 66], the half-maximal inhibitory concentration (IC50) was determined as 0.0142 µM in test [1], 0.0371 µM in test [2] and 0.0408 µM in test [4] (setting [5]). The “ICW EC30” value in test [3] amounted to 0.3931 µM.

In the case of `CNCCN(C)Cc1c[nH]nc1-c1ccc(OCCOC)nc1` [Compound 121], the IC50 in test [1] came out at 0.0423 µM; in test [2], 0.163 µM; in test [4] (PRMT6 IC50 (uM)), 0.0886 µM. For the same compound, the “ICW EC30” value in test [3] is 1.472 µM.

Take `C=C(C)COc1c(Cl)cc(-c2n[nH]cc2CN(C)CCNC)cc1Cl` [Compound 7]: the values for the concentration for half-maximal inhibition (IC50) in test [1], in test [2] and in test [4] (setting [5]) were 0.00486 µM, 0.0124 µM and 0.0131 µM, respectively. The “ICW EC30” value in test [3] is 0.09154 µM.

`CNCCN(C)Cc1c[nH]nc1-c1ccc(OCCOc2ccc(OC(C)C)cc2)cc1` [Compound 33]: the figures for the IC50 in test [1], in test [2] and in test [4] (setting [5]) were 0.00737 µM, 0.0233 µM and 0.00562 µM, respectively. In addition, in test [3], the “ICW EC30” value amounted to 0.232 µM.

In the case of `CCOCC(C)(C)c1cc(OCCOC)cc(-c2n[nH]cc2CN(C)CCNC)c1` [Compound 122], the IC50 in test [1] is 0.043 µM; in test [2] it was 0.371 µM; in test [4] (setting [5]), > 10 µM. Besides, in test [3], the “ICW EC30” value is 6.626 µM.

On to `CNCCN(C)Cc1c[nH]nc1-c1cc(Cl)c(OCC(C)C)c(Cl)c1` [Compound 1], for which the concentration for half-maximal inhibition (IC50) in test [1] amounted to 0.00351 µM; in test [2], 0.0173 µM; in test [4] (PRMT6 IC50 (uM)), 0.0104 µM. Moreover, the “ICW EC30” value in test [3] is 0.38 µM.

Regarding `CNCCN(C)Cc1c[nH]nc1-c1ccc(OCCCOC)c(OCC2CCOCC2)c1` [Compound 87], the IC50 in test [1] was determined as 0.0227 µM; in test [2], 0.424 µM; in test [4] (setting [5]) it was 0.0783 µM. Besides, the “ICW EC30” value in test [3] came to 6.199 µM.

For `CNCCN(C)Cc1c[nH]nc1-c1ccc(OCCOc2ccc(Oc3ccc(OCCOC)cc3)cc2)cc1` [Compound 15], the 50% inhibitory concentration (IC50) in test [1] is 0.00579 µM; in test [2] it was 0.0193 µM; in test [4] (setting [5]), 0.00238 µM. Further, the “ICW EC30” value in test [3] came to 0.2201 µM.

As for `COCCOc1cc(-c2n[nH]cc2CN(C)CCN)cc(C(F)F)c1` [Compound 29], the half-inhibitory concentration (IC50) stood at 0.00694 µM in test [1], 0.112 µM in test [2] and 0.276 µM in test [4] (setting [5]). Besides, the “ICW EC30” value in test [3] is 5.437 µM.

With `CNCCN(C)Cc1c[nH]nc1-c1cc(F)c(OCCOC)c(C(F)(F)F)c1` [Compound 103], the half-inhibitory concentration (IC50) turned out to be 0.0333 µM in test [1], 0.0421 µM in test [2] and 0.0274 µM in test [4] (setting [5]). Further, the “ICW EC30” value in test [3] stood at 0.85 µM.

Usually IC50 stands for the point on the concentration scale where inhibition reaches its midpoint.
